Drawing on patent publication US10519154B2, “7-substituted 1-pyridyl-naphthyridine-3-carboxylic acid amides and use thereof” (Bayer Pharma Aktiengesellschaft, priority 2016, dated 2019), this text covers EC50 and Emax for 20 molecules.

The experiment addresses T1, human M2 receptor (Homo sapiens, UniProt P08172).
T1 sequence (P08172 1-466): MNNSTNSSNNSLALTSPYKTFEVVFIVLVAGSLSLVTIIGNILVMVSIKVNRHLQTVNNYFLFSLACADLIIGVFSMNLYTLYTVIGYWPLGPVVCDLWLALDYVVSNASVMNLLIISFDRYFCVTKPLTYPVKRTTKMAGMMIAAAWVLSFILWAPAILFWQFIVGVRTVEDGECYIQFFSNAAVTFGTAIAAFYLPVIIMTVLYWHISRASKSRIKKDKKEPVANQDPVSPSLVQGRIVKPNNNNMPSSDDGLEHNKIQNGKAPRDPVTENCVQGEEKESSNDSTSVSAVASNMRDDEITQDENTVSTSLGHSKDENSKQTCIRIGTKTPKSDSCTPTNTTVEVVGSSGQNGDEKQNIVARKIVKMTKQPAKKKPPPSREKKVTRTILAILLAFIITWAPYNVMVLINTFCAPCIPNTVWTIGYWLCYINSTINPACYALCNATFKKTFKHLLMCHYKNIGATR
The experiment is described as follows: Functional M2-GIRK1/4 activation test: allosteric potency (EC50) and efficiency. The following applies: for EC50: Receptor activity EC50, CHO-DUKX-M2-GIRK cells, acetylcholine at EC20, in some cases mean of two or more determinations; for Emax: read-out: Efficiency, boosting of the acetylcholine effect at EC20 acetylcholine concentration, CHO-DUKX-M2-GIRK cells.

The EC50 is the concentration at which the effect is half-maximal. Low readings indicate higher potency in that assay, high ones lower potency in that assay. In the case of `CC(CF)(CF)NC(=O)c1cn(-c2ncc(F)cc2F)c2nc(N3C[C@@H](O)[C@H](O)C3)ccc2c1=O` [Example 103, N-(1,3-Difluoro-2-methylpropan-2-yl)-1-(3,5-difluoropyridin-2-yl)-7-[(3R,4R)-3,4-dihydroxypyrrolidin-1-yl]-4-oxo-1,4-dihydro-1,8-naphthyridine-3-carboxamide], the EC50 worked out at 305 nM and the Emax was found to be 100%.

Consider `CC[C@H](NC(=O)c1cn(-c2ncc(F)cc2F)c2nc(N3C(=O)C4(CC4)C(O)C3C)ccc2c1=O)C(F)(F)F` (stereo partly drawn) [Example 113, 1-(3,5-Difluoropyridin-2-yl)-7-[7-hydroxy-6-methyl-4-oxo-5-azaspiro[2.4]hept-5-yl]-4-oxo-N-[(2S)-1,1,1-trifluorobutan-2-yl]-1,4-dihydro-1,8-naphthyridine-3-carboxamide], for which the response was half-maximal at 145 nM (EC50) and the Emax amounted to 97%.

As to `CC1C(O)C2(CC2)C(=O)N1c1ccc2c(=O)c(C(=O)N[C@H](C3CC3)C(F)(F)F)cn(-c3ncc(F)cc3F)c2n1` (stereo partly drawn) [Example 114, N-[(1R)-1-Cyclopropyl-2,2,2-trifluoroethyl]-1-(3,5-difluoropyridin-2-yl)-7-[7-hydroxy-6-methyl-4-oxo-5-azaspiro[2.4]hept-5-yl]-4-oxo-1,4-dihydro-1,8-naphthyridine-3-carboxamide], the EC50 is 111 nM and the Emax was 96.5%.

As to `CC1C(O)C2(CC2)C(=O)N1c1ccc2c(=O)c(C(=O)N[C@@H](C3CC3)C(F)(F)F)cn(-c3ncc(F)cc3F)c2n1` (stereo partly drawn) [Example 115, N-[(1S)-1-Cyclopropyl-2,2,2-trifluoroethyl]-1-(3,5-difluoropyridin-2-yl)-7-[7-hydroxy-6-methyl-4-oxo-5-azaspiro[2.4]hept-5-yl]-4-oxo-1,4-dihydro-1,8-naphthyridine-3-carboxamide], the response was half-maximal at 150 nM (EC50) and the Emax was 89%.

As to `CC1C(O)C2(CC2)C(=O)N1c1ccc2c(=O)c(C(=O)N[C@@H](C)C(F)(F)F)cn(-c3ncc(F)cc3F)c2n1` (stereo partly drawn) [Example 116, 1-(3,5-Difluoropyridin-2-yl)-7-[7-hydroxy-6-methyl-4-oxo-5-azaspiro[2.4]hept-5-yl]-4-oxo-N-[(2S)-1,1,1-trifluoropropan-2-yl]-1,4-dihydro-1,8-naphthyridine-3-carboxamide], it took 335 nM to reach a half-maximal effect (EC50) and the Emax came to 96%.

In the case of `CC[C@H](NC(=O)c1cn(-c2c(F)cncc2F)c2nc(N3C[C@@H](O)[C@H](O)C3)ccc2c1=O)C(F)(F)F` [Example 118, 1-(3,5-Difluoropyridin-4-yl)-7-[(3R,4R)-3,4-dihydroxypyrrolidin-1-yl]-4-oxo-N-[(2S)-1,1,1-trifluorobutan-2-yl]-1,4-dihydro-1,8-naphthyridine-3-carboxamide], a half-maximal response (EC50) required 500 nM and the Emax worked out at 100%.

Turning to `CC[C@H](NC(=O)c1cn(-c2ncc(F)cc2F)c2nc(N3CCN(CCO)C3=O)ccc2c1=O)C(F)(F)F` [Example 119, 1-(3,5-Difluoropyridin-2-yl)-7-[3-(2-hydroxyethyl)-2-oxoimidazolidin-1-yl]-4-oxo-N-[(2S)-1,1,1-trifluorobutan-2-yl]-1,4-dihydro-1,8-naphthyridine-3-carboxamide], the EC50 was 790 nM and the Emax is 92%.

As for `CC[C@H](NC(=O)c1cn(-c2ncc(F)cc2F)c2nc(N3CCCN(CCO)C3=O)ccc2c1=O)C(F)(F)F` [Example 120, 1-(3,5-Difluoropyridin-2-yl)-7-[3-(2-hydroxyethyl)-2-oxotetrahydropyrimidin-1(2H)-yl]-4-oxo-N-[(2S)-1,1,1-trifluorobutan-2-yl]-1,4-dihydro-1,8-naphthyridine-3-carboxamide], a half-maximal response (EC50) required 400 nM and the Emax is 100%.

Take `O=C(N[C@H](C1CC1)C(F)(F)F)c1cn(-c2ncc(F)cc2F)c2nc(N3CCN(CCO)C3=O)ccc2c1=O` [Example 121, N-[(1R)-1-Cyclopropyl-2,2,2-trifluoroethyl]-1-(3,5-difluoropyridin-2-yl)-7-[3-(2-hydroxyethyl)-2-oxoimidazolidin-1-yl]-4-oxo-1,4-dihydro-1,8-naphthyridine-3-carboxamide]: the 50% effective concentration (EC50) turned out to be 320 nM and the Emax stood at 99%.

Turning to `O=C(N[C@H](C1CC1)C(F)(F)F)c1cn(-c2ncc(F)cc2F)c2nc(N3CCCN(CCO)C3=O)ccc2c1=O` [Example 122, N-[(1R)-1-Cyclopropyl-2,2,2-trifluoroethyl]-1-(3,5-difluoropyridin-2-yl)-7-[3-(2-hydroxyethyl)-2-oxotetrahydropyrimidin-1(2H)-yl]-4-oxo-1,4-dihydro-1,8-naphthyridine-3-carboxamide], the response was half-maximal at 220 nM (EC50) and the Emax came to 92%.

For the molecule `O=C(N[C@@H](C1CC1)C(F)(F)F)c1cn(-c2ncc(F)cc2F)c2nc(N3CCCN(CCO)C3=O)ccc2c1=O` [Example 123, N-[(1S)-1-Cyclopropyl-2,2,2-trifluoroethyl]-1-(3,5-difluoropyridin-2-yl)-7-[3-(2-hydroxyethyl)-2-oxotetrahydropyrimidin-1(2H)-yl]-4-oxo-1,4-dihydro-1,8-naphthyridine-3-carboxamide], the EC50 came out at 240 nM and the Emax was 98%.

`CC(C)(C)[C@H](NC(=O)c1cn(-c2ncc(F)cc2F)c2nc(N3CCN(CCO)C3=O)ccc2c1=O)C(F)(F)F` [Example 124, 1-(3,5-Difluoropyridin-2-yl)-7-[3-(2-hydroxyethyl)-2-oxoimidazolidin-1-yl]-4-oxo-N-[(2S)-1,1,1-trifluoro-3,3-dimethylbutan-2-yl]-1,4-dihydro-1,8-naphthyridine-3-carboxamide]: the response was half-maximal at 130 nM (EC50) and the Emax was determined as 97%.

On to `CC(C)(C)[C@H](NC(=O)c1cn(-c2ncc(F)cc2F)c2nc(N3CCCN(CCO)C3=O)ccc2c1=O)C(F)(F)F` [Example 125, 1-(3,5-Difluoropyridin-2-yl)-7-[3-(2-hydroxyethyl)-2-oxotetrahydropyrimidin-1(2H)-yl]-4-oxo-N-[(2S)-1,1,1-trifluoro-3,3-dimethylbutan-2-yl]-1,4-dihydro-1,8-naphthyridine-3-carboxamide], for which the EC50 was found to be 73 nM and the Emax worked out at 97%.

For the molecule `CC(C)(C)[C@@H](NC(=O)c1cn(-c2ncc(F)cc2F)c2nc(N3CCN(CCO)C3=O)ccc2c1=O)C(F)(F)F` [Example 126, 1-(3,5-Difluoropyridin-2-yl)-7-[3-(2-hydroxyethyl)-2-oxoimidazolidin-1-yl]-4-oxo-N-[(2R)-1,1,1-trifluoro-3,3-dimethylbutan-2-yl]-1,4-dihydro-1,8-naphthyridine-3-carboxamide], the EC50 was found to be 87 nM and the Emax turned out to be 98%.

Take `CC(C)(C)[C@@H](NC(=O)c1cn(-c2ncc(F)cc2F)c2nc(N3CCCN(CCO)C3=O)ccc2c1=O)C(F)(F)F` [Example 127, 1-(3,5-Difluoropyridin-2-yl)-7-[3-(2-hydroxyethyl)-2-oxotetrahydropyrimidin-1(2H)-yl]-4-oxo-N-[(2R)-1,1,1-trifluoro-3,3-dimethylbutan-2-yl]-1,4-dihydro-1,8-naphthyridine-3-carboxamide]: the EC50 was 50 nM and the Emax worked out at 96%.

With `CC[C@H](NC(=O)c1cn(-c2c(F)cncc2F)c2nc(N3CCNC3=O)ccc2c1=O)C(F)(F)F` [Example 128, 1-(3,5-Difluoropyridin-4-yl)-4-oxo-7-(2-oxoimidazolidin-1-yl)-N-[(2S)-1,1,1-trifluorobutan-2-yl]-1,4-dihydro-1,8-naphthyridine-3-carboxamide], a half-maximal response (EC50) required 520 nM and the Emax was determined as 89%.

On to `CC[C@H](NC(=O)c1cn(-c2ncc(F)cc2F)c2nc(N3CC[C@H](F)C3)ccc2c1=O)C(F)(F)F` [Example 129, 1-(3,5-Difluoropyridin-2-yl)-7-[(3S)-3-fluoropyrrolidin-1-yl]-4-oxo-N-[(2S)-1,1,1-trifluorobutan-2-yl]-1,4-dihydro-1,8-naphthyridine-3-carboxamide], for which the EC50 came out at 21 nM and the Emax is 96.5%.

On to `CC[C@H](NC(=O)c1cn(-c2ncc(F)cc2F)c2nc(N(C)C)ccc2c1=O)C(F)(F)F` [Example 130, 1-(3,5-Difluoropyridin-2-yl)-7-(dimethylamino)-4-oxo-N-[(2S)-1,1,1-trifluorobutan-2-yl]-1,4-dihydro-1,8-naphthyridine-3-carboxamide], for which the concentration giving a half-maximal response (EC50) turned out to be 53 nM and the Emax amounted to 93%.

On to `CC[C@H](NC(=O)c1cn(-c2ncc(F)cc2F)c2nc(N3CC(O)(C(F)(F)F)C3)ccc2c1=O)C(F)(F)F` [Example 131, 1-(3,5-Difluoropyridin-2-yl)-7-[3-hydroxy-3-(trifluoromethyl)azetidin-1-yl]-4-oxo-N-[(2S)-1,1,1-trifluorobutan-2-yl]-1,4-dihydro-1,8-naphthyridine-3-carboxamide], for which a half-maximal effect (EC50) was put at 108 nM and the Emax amounted to 95.5%.

Turning to `CC[C@H](NC(=O)c1cn(-c2ncc(F)cc2F)c2nc(N3CC(F)C3)ccc2c1=O)C(F)(F)F` [Example 132, 1-(3,5-Difluoropyridin-2-yl)-7-(3-fluoroazetidin-1-yl)-4-oxo-N-[(2S)-1,1,1-trifluorobutan-2-yl]-1,4-dihydro-1,8-naphthyridine-3-carboxamide], the response was half-maximal at 325 nM (EC50) and the Emax was determined as 98%.
